According to paper PMC11714206, “Massively Parallel Screening of Toll/Interleukin‐1 Receptor (TIR)‐Derived Peptides Reveals Multiple Toll‐Like Receptors (TLRs)‐Targeting Immunomodulatory Peptides” (Advanced Science, 2024):
One block for each sequence: values may come before it.

Biological target: T1, MAL^TIR (Homo sapiens, UniProt P58753)
T1 construct: MAL (residues 79–221); 6xHis; made in house; host or cells: E. coli BL21 (DE3)
Assay: T‐Surf phage library (P8 and P3) selection against MAL^TIR, four rounds, NGS read counts
Assay type: binding
Details: for Population: P3_MAL pool: P3 T-Surf phage library, 4th round of selection against MAL TIR, share of NGS reads; for P3_MAL Rank (after) / P3_MAL Rank (before): P3 library; for P8_MAL Rank (after) / P8_MAL Rank (before): P8 library
How it was run: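 P8 and P3 T‐Surf libraries panned against plate-coated TIR domains (5 µg mL^−1), 1 h binding at RT, acid elution and TG1/helper-phage amplification per round. After four rounds, pools were PCR-barcoded and sequenced (NovaSeq, 100 bp paired-end, Phred ≥30); peptides ranked by read counts.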

[1] = P3_MAL: rank by count after grouping
[2] = P3_MAL: rank by count before grouping
[3] = selection against MAL TIR, rank by count after grouping
[4] = selection against MAL TIR, rank by count before grouping
[5] = 4R selection against MAL, rank after grouping
[6] = 4R selection against MAL, rank before grouping
[7] = selection against MAL, rank by count after grouping
[8] = selection against MAL, rank by count before grouping
[9] = P8_MAL: rank by count after grouping
[10] = P8_MAL: rank by count before grouping
[11] = selection against MAL, rank after grouping
[12] = selection against MAL, rank before grouping

T1 sequence (P58753 79-221): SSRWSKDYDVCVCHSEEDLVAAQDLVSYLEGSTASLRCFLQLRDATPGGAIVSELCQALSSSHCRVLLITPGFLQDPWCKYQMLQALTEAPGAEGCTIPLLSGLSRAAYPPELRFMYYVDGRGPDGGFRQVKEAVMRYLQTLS

Population: 0.00488%
Sequence: LNLRTKVLNYLMRTKT

Population: 0.00338%
Sequence: LNVESWRQALEKAGKL

Rank (after) [1]: 185 | Rank (before) [2]: 2196
Sequence: LNWGDPYFWRKLRYAM

P3_MAL Rank (after) [3]: 230 | P3_MAL Rank (before) [4]: 2137
Sequence: LQNHCKLALTKVANLV

P3_MAL Rank (after) [5]: 629 | P3_MAL Rank (before) [6]: 2147
Sequence: LQNQWKLALTAAANLSGW

P3_MAL Rank (after) [3]: 219 | P3_MAL Rank (before) [4]: 2152
Sequence: LQNQWKLALTKVAHLL

P3_MAL Rank (after) [3]: 236 | P3_MAL Rank (before) [4]: 2160
Sequence: LQNQWKLALTKVAKLE

Rank (after) [1]: 459 | Rank (before) [2]: 2149
Sequence: LQNQWKLALTNVASLV

P3_MAL Rank (after) [3]: 231 | P3_MAL Rank (before) [4]: 827
Sequence: LQNQWKLALTQAAN

Rank (after) [1]: 422 | Rank (before) [2]: 2140
Sequence: LQNQWRNALTAAANLSGW

P8_MAL Rank (after) [7]: 677 | P8_MAL Rank (before) [8]: 2165
Sequence: LRKIADLSGWTLKSFR

Rank (after) [1]: 398 | Rank (before) [2]: 2188
Sequence: LSGWAFKRGSCAEYEY

Rank (after) [1]: 392 | Rank (before) [2]: 2181
Sequence: LSVESWRQALEKAGQL

Rank (after) [1]: 411 | Rank (before) [2]: 2093
Sequence: LVAHAISKKMKLFATI

Rank (after) [9]: 182 | Rank (before) [10]: 923
Sequence: LVAHEISKKMKIFATI

P3_MAL Rank (after) [11]: 490 | P3_MAL Rank (before) [12]: 2102
Sequence: LVAHEISKKMKIFCDH

P3_MAL Rank (after) [7]: 764 | P3_MAL Rank (before) [8]: 2101
Sequence: LVAHEISKKMNIFATV

Rank (after) [1]: 387 | Rank (before) [2]: 2092
Sequence: LVAHGISNKLKIFATI

P8_MAL Rank (after) [5]: 636 | P8_MAL Rank (before) [6]: 2163
Sequence: LVFWESLKHLLRSDDR

P3_MAL Rank (after) [7]: 745 | P3_MAL Rank (before) [8]: 2091
Sequence: LVVQENLKQLLLFGGL

P3_MAL Rank (after) [5]: 587 | P3_MAL Rank (before) [6]: 2929
Sequence: MERVKAFHQRLKTALGH

P3_MAL Rank (after) [3]: 225 | P3_MAL Rank (before) [4]: 2932
Sequence: MERVKAFHQRLKTAPI

P8_MAL Rank (after) [3]: 192 | P8_MAL Rank (before) [4]: 1005
Sequence: MFGGDTFHDFLDLISM

Rank (after) [1]: 388 | Rank (before) [2]: 2938
Sequence: MRLPAICNVIWCSVA

Population: 0.00413%
Sequence: MSHLYQGLKNRGI

Rank (after) [1]: 117 | Rank (before) [2]: 254
Sequence: MSHLYQGLKNRGIFT

P3_MAL Rank (after) [11]: 527 | P3_MAL Rank (before) [12]: 2944
Sequence: MSHLYQGLNNRGIFIF

Rank (after) [1]: 396 | Rank (before) [2]: 2943
Sequence: MSHLYQGLQHRGIFTF

Rank (after) [1]: 454 | Rank (before) [2]: 2967
Sequence: MSMRPGDRLQRSGI

P3_MAL Rank (after) [5]: 663 | P3_MAL Rank (before) [6]: 2959
Sequence: MSQRYQGLKNRGIFTF

Rank (after) [1]: 438 | Rank (before) [2]: 2922
Sequence: MVRVKAFHKRLKTALG

Population: 0.00488%
Sequence: NAFTGHLHRYLVQRGV

P3_MAL Rank (after) [3]: 287 | P3_MAL Rank (before) [4]: 3276
Sequence: NAFTGNLHRYLVQRGV

P3_MAL Rank (after) [7]: 679 | P3_MAL Rank (before) [8]: 3278
Sequence: NDVEGCRDALTKVASL

P3_MAL Rank (after) [7]: 731 | P3_MAL Rank (before) [8]: 3294
Sequence: NELVHVWSSKAHSPVG

P8_MAL Rank (after) [3]: 259 | P8_MAL Rank (before) [4]: 2675
Sequence: NFLGLLYNELVQAGLH

P3_MAL Rank (after) [5]: 647 | P3_MAL Rank (before) [6]: 3257
Sequence: NGHESELIKEIVVTIV

Rank (after) [1]: 468 | Rank (before) [2]: 3252
Sequence: NGHGSAIIKEIVVTSW

P3_MAL Rank (after) [7]: 702 | P3_MAL Rank (before) [8]: 3249
Sequence: NGYGSELIKEIVDTGV

P3_MAL Rank (after) [3]: 263 | P3_MAL Rank (before) [4]: 3433
Sequence: NHSRNALTAAANLSGW

P8_MAL Rank (after) [3]: 248 | P8_MAL Rank (before) [4]: 2657
Sequence: NHWRNALTAAANLIGW

P8_MAL Rank (after) [3]: 286 | P8_MAL Rank (before) [4]: 2678
Sequence: NLIQGWLLYRLLKIEK

Rank (after) [9]: 403 | Rank (before) [10]: 2677
Sequence: NLLYDLLRWLGIRAFL

P3_MAL Rank (after) [5]: 618 | P3_MAL Rank (before) [6]: 3319
Sequence: NLWKLWTKPGGVRDDR

P8_MAL Rank (after) [7]: 720 | P8_MAL Rank (before) [8]: 2656
Sequence: NLWRNALTAAANLSSW

P3_MAL Rank (after) [11]: 540 | P3_MAL Rank (before) [12]: 3318
Sequence: NLWRNALTVAANLSGW

P3_MAL Rank (after) [3]: 258 | P3_MAL Rank (before) [4]: 3481
Sequence: NNLFNALVSKNIRTFM
